Source: patent US12600696B2 (XENIOPRO GMBH, priority 2017, dated 2026)

system: Notch signaling (hNotch1ΔE, human Notch1 receptor) in HeLa cells; experiment: Notch reporter assay (luciferase luminescence readout in transfected HeLa cells); assay type: cell-based; conditions: 10 μM, 20 hours, relative to DMSO baseline level of 1.0
Experimental: An according Notch-reporter assay, i.e. a luciferase-based luminescence readout, was used here to quantify the ability of the claimed small molecules to augment Notch signaling in a cellular system. For this purpose, HeLa cells, obtainable from the American Type Culture Collection (ATCC) under the accession number ATCC-CCL-2, were transiently transfected for 24 hours using FuGENE® HD (Promega, #E2311) as transfection reagent with expression vectors of a membrane-tethered form of the constitutively active intracellular domain of the human Notch1 receptor (hNotch1ΔE) to activate the signaling cascade (BPS Bioscience, human analogue to Notch Pathway Reporter Kit #60509 component C), a Firefly luciferase being expressed under the control of a Notch-responsive promoter to monitor Notch signaling (BPS Bioscience, Notch Pathway Reporter Kit #60509, CSL luciferase reporter vector from component A not premixed with Renilla luciferase vector), and a Renilla luciferase being constitutively expressed in a Notch signaling independent manner to include a measure for the cell number per sample (Promega, pRL-SV40, #E2231). HeLa cells were cultivated according to the protocol of the provider in DMEM medium (Fisherscientific, #11584456) containing 10% fetal bovine serum (Fisherscientific, #15517589). The transfection was carried out in a 100 mm-culture dish (StarLab, #CC7682-3394) with cells being properly attached to the plate at a cell confluency of 80-90% in a total volume of 7 mL culture medium. Per dish to be transfected, a transfection mix was prepared by adding to 238 μL Opti-MEM (Fisherscientific, #10149832) 40 μL of the hNotch1ΔE expression vector (100 ng/μL), 80 μL of the CSL luciferase reporter vector (40 ng/μL), 4 μL of the pRL-SV40-Renilla luciferase vector (10 ng/μL), and in the last step 18.1 μL of FuGENE® HD. After addition of FuGENE® HD the transfection mix was let stand for 15 min at room temperature and hereafter equally distributed into the culture dish. Subsequently, i.e. after 24 hours of transfection, the transfected cells (10.000 cells per well) were incubated with the test-compounds at a final concentration of 10 μM (diluted from 10 mM stock-solutions in DMSO to a final DMSO concentration of 0.1% v/v) or with the empty carrier DMSO at 0.1% v/v as control for 20 hours in 96-well plates suitable for luminescence readouts (CORNING, #3610). Hereafter, the cells were lysed with 30 μL per well of Passive Lysis Buffer (Promega, #E194A, component of Dual-Luciferase® Reporter Assay System, #E1910) and the Firefly as well as Renilla luciferase values were measured with a luminescence reader with applying 15 μL per well each of the corresponding enzyme substrates needed to create the luminescence signals (Promega, Dual-Luciferase® Reporter Assay System, #E1910).
The suitability of the assays for monitoring Notch signaling was controlled by additionally including a generally accepted commercial Notch inhibitor, i.e. DAPT, as negative control, as well as the reported Notch enhancer resveratrol (RES) as positive control (Pinchot et al., Cancer 2011, 117, 1386-1398; Truong et al., Ann. Surg. Oncol. 2011, 18, 1506-1511; Yu et al., Mol. Cancer Ther. 2013, 12, 1276-1287). Both control compounds were likewise tested at 10 μM.
Per single experiment the measurement was performed in six replicates per compound. For every compound, this experiment was repeated in three or more independent replicates. The values of the Notch-reporter luciferase were normalized by division through the corresponding individual Notch-independent Renilla values in order to eliminate the impact of variation in the absolute cell-numbers in between the samples. For every individual plate, a second normalization was performed against the equally weighted arithmetic mean (here abbreviated as AVE) of the six associated Renilla-normalized DMSO-control values within a single experiment in order to obtain the relative values to a baseline level of 1.0. […]

| SMILES | AVEw, weighted arithmetic mean of double-normalized Notch-reporter luciferase luminescence values (Activity Range) |
| --- | --- |
| C[C@H](NC(=O)Cc1cc(F)cc(F)c1)C(=O)N[C@H](C(=O)OC(C)(C)C)c1ccccc1 [DAPT, reference compound] | 0.1 ± 0.0 |

same assay, conditions: Homo sapiens, 20 hours, relative to DMSO baseline level of 1.0, read-out: AVEw, weighted arithmetic mean of double-normalized Notch-reporter luciferase luminescence values (Activity Range)

| SMILES | fold induction at 10 µM |
| --- | --- |
| CCCc1ccc(Oc2ccc(C(=O)O)cc2)cc1 [Compound 003, 4-(4-propylphenoxy)benzoic acid] | 1.7 to 2 |
| CCCCc1ccc(Oc2ccc(C(=O)O)cc2)cc1 [Compound 004, 4-(4-butylphenoxy)benzoic acid] | 1.4 to 1.7 |
| CCCCCc1ccc(Oc2ccc(C(=O)O)cc2)cc1 [Compound 005, 4-(4-Pentylphenoxy)benzoic acid] | 1.7 to 2 |
| CC(C)c1ccc(Oc2ccc(C(=O)O)cc2)cc1 [Compound 007, 4-(4-isopropylphenoxy)benzoic acid] | 1.2 to 1.3 |
| O=C(O)c1ccc(Oc2ccc(C3C[C@@H]4CC[C@H]3C4)cc2)cc1 (stereo partly drawn) [Compound 019, 4-(4-((1S,4R)-bicyclo[2.2.1]heptan-2-yl)phenoxy)benzoic acid] | 1.2 to 1.3 |
| CCCc1ccc(Oc2ccc(C(=O)OC)cc2)cc1 [Compound 025, methyl 4-(4-propylphenoxy)benzoate] | 1.2 to 1.3 |
| CCCCc1ccc(Oc2ccc(C(=O)OC)cc2)cc1 [Compound 026, methyl 4-(4-butylphenoxy)benzoate] | 1.4 to 1.7 |
| CCCCCc1ccc(Oc2ccc(C(=O)OC)cc2)cc1 [Compound 027, methyl 4-(4-pentylphenoxy)benzoate] | 1.7 to 2 |
| CCCc1ccc(Oc2ccc(C(=O)OCC)cc2)cc1 [Compound 050, ethyl 4-(4-propylphenoxy)benzoate] | 1.4 to 1.7 |
| CCCCc1ccc(Oc2ccc(C(=O)OCC)cc2)cc1 [Compound 051, Ethyl 4-(4-butylphenoxy)benzoate] | 1.7 to 2 |
| CCCCCc1ccc(Oc2ccc(C(=O)OCC)cc2)cc1 [Compound 052, ethyl 4-(4-pentylphenoxy)benzoate] | 1.4 to 1.7 |
| CCCc1ccc(Oc2ccc(C(=O)O)cn2)cc1 [Compound 071, 6-(4-Propylphenoxy)nicotinic acid] | 1.4 to 1.7 |
| COC(=O)c1ccc(Oc2ccc(C)cc2)nc1 [Compound 091, methyl 6-(p-tolyloxy)nicotinate] | 1.2 to 1.3 |
| COC(=O)c1ccc(Oc2ccc(C34CC5CC(CC(C5)C3)C4)cc2)nc1 [Compound 114, Methyl 6-(4-(adamantan-1-yl)phenoxy)nicotinate] | 1.7 to 2 |
| CCOC(=O)c1ccc(Oc2ccc(CC)cc2)nc1 [Compound 117, Ethyl 6-(4-Ethylphenoxy)nicotinate] | 1.4 to 1.7 |
| CCCc1ccc(Oc2ccc(C(=O)OCC)cn2)cc1 [Compound 118, ethyl 6-(4-propylphenoxy)nicotinate] | 1.1 to 1.2 |
| CCCCCc1ccc(Oc2ccc(C(=O)OCC)cn2)cc1 [Compound 120, ethyl 6-(4-pentylphenoxy)nicotinate] | 1.4 to 1.7 |
| CCOC(=O)c1ccc(Oc2ccc(C(C)C)cc2)nc1 [Compound 122, ethyl 6-(4-isopropylphenoxy)nicotinate] | 1.3 to 1.4 |

| SMILES | fold induction at 10 µM |
| --- | --- |
| CNC(=O)c1ccc(Oc2ccc(C)cc2)cc1 [Compound 189, N-methyl-4-(p-tolyloxy)benzamide] | 1.1 to 1.2 |
| CNC(=O)c1ccc(Oc2ccc(C(C)C)cc2)cc1 [Compound 195, 4-(4-Isopropylphenoxy)-N-methylbenzamide] | 1.2 to 1.3 |
| CN(C)C(=O)c1ccc(Oc2ccc(C3CCCCC3)cc2)cc1 [Compound 234, 4-(4-cyclohexylphenoxy)-N,N-dimethylbenzamide] | 1.1 to 1.2 |
| Cc1ccc(Oc2ccc(C(N)=O)cn2)cc1 [Compound 241, 6-(p-Tolyloxy)nicotinamide] | 1.2 to 1.3 |
| CCc1ccc(Oc2ccc(C(N)=O)cn2)cc1 [Compound 242, 6-(4-ethylphenoxy)nicotinamide] | 1.2 to 1.3 |
| CC(C)c1ccc(Oc2ccc(C(N)=O)cn2)cc1 [Compound 247, 6-(4-isopropylphenoxy)nicotinamide] | 1.2 to 1.3 |
| CNC(=O)c1ccc(Oc2ccc(C)cc2)nc1 [Compound 291, N-methyl-6-(p-tolyloxy)nicotinamide] | 1.4 to 1.7 |
| CCc1ccc(Oc2ccc(C(=O)NC)cn2)cc1 [Compound 292, 6-(4-ethylphenoxy)-N-mtehylnicotinamide] | 1.3 to 1.4 |
| CNC(=O)c1ccc(Oc2ccc(C(C)C)cc2)nc1 [Compound 297, 6-(4-Isopropylphenoxy)-N-methylnicotinamide] | 1.4 to 1.7 |
| CCCc1ccc(Oc2ccc(C(=O)O)cc2F)cc1 [Compound 343, 3-fluoro-4-(4-propylphenoxy)benzoic acid] | 1.1 to 1.2 |
| CCCCc1ccc(Oc2ccc(C(=O)O)cc2F)cc1 [Compound 344] | 1.3 to 1.4 |
| O=C(O)c1ccc(Oc2ccc(C34CC5CC(CC(C5)C3)C4)cc2)c(F)c1 [Compound 363, 4-(4-((3r,5r,7r)-adamantan-1-yl)phenoxy)-3-fluorobenzoic acid] | 1.2 to 1.3 |
| CCCc1ccc(Oc2ccc(C(=O)OCC)cc2F)cc1 [Compound 394, ethyl 3-fluoro-4-(4-propylphenoxy)benzoate] | 1.4 to 1.7 |
| CCCCCc1ccc(Oc2ccc(C(=O)OCC)cc2F)cc1 [Compound 396, ethyl 3-fluoro-4-(4-pentylphenoxy)benzoate] | 1.2 to 1.3 |
| CCC(C)(C)c1ccc(Oc2ncc(C(=O)OC)cc2F)cc1 [Compound 451, Methyl 5-fluoro-6-(4-(tert-pentyl)phenoxy)nicotinate] | 1.1 to 1.2 |
| O=C(O)c1ccc(Oc2ccc(C3(C(F)(F)F)CC3)cc2)cc1 [Compound 703, 4-(4-(1-(Trifluoromethyl)cyclopropyl)phenoxy)benzoic acid] | 1.1 to 1.2 |
| O=C(O)c1ccc(Oc2ccc(C3(C(F)(F)F)CC3)cc2)nc1 [Compound 730, 6-(4-(1-(Trifluoromethyl)cyclopropyl)phenoxy)nicotinic acid] | 1.1 to 1.2 |
